From patent US7361743B2 (Pfizer Inc, priority 2004, dated 2008)
Converted amounts (≈) assume the structure as drawn. Where two headings read alike, the source gives them in different places.

Experiments:
Assay type in all cases: cell-based
Haemophilus influenzae = assay: Susceptibility testing, NCCLS microdilution MIC; settings: for MIC: Haemophilus influenzae
Enterococcus faecalis = assay: Susceptibility testing, NCCLS microdilution MIC; settings: for MIC: Enterococcus faecalis
Bacteroides fragilis = assay: Susceptibility testing, NCCLS microdilution MIC (anaerobe); settings: for MIC: Bacteroides fragilis
Staphylococcus aureus = assay: Susceptibility testing, NCCLS microdilution MIC; settings: ATCC25923, S. aureus ATCC 25923, Example A′, read-out: MIC S. aureus
[1] = ATCC31517, Example A′, strain ATCC 31517, 24 h at 35° C., read-out: MIC against H. influenzae strain ATCC 31517
[2] = Example A′, strain ATCC29212, 24 h at 35° C., read-out: MIC against Enterococcus faecalis strain ATCC29212
[3] = ATCC31517, H. influenzae ATCC 31517, NCCLS microdilution, read-out: MIC H. influenzae
[4] = ATCC29212, E. faecalis ATCC 29212, NCCLS microdilution, read-out: MIC E. faecalis
[5] = Example A, strain ATCC29212, 16-20 h at 35° C., read-out: MIC against Enterococcus faecalis strain ATCC29212
[6] = ATCC25285, B. fragilis ATCC 25285, NCCLS microdilution, anaerobe, read-out: MIC B. fragilis
[7] = Example A, strain ATCC25285, anaerobe, 35° C. for 46-48 h, read-out: MIC against Bacteroides fragilis strain ATCC25285
[8] = ATCC31517, H. influenzae ATCC 31517, Example A′, read-out: MIC H. influenzae
[9] = ATCC29212, E. faecalis ATCC 29212, Example A′, read-out: MIC E. faecalis
[10] = ATCC25285, B. fragilis ATCC 25285, Example A′, read-out: MIC B. fragilis
[11] = ATCC31517, Example A, strain ATCC 31517, 16-20 h at 35° C., read-out: MIC against H. influenzae strain ATCC 31517

Row | SMILES | MIC (Haemophilus influenzae; [1]) [µg/mL] | MIC (Enterococcus faecalis; [2]) [µg/mL] | MIC (Haemophilus influenzae; [3]) [µg/mL] | MIC (Enterococcus faecalis; [4]) [µg/mL] | MIC (Enterococcus faecalis; [5]) [µg/mL] | MIC (Bacteroides fragilis; [6]) [µg/mL] | MIC (Bacteroides fragilis; [7]) [µg/mL] | further results
1 | CS[C@H]1O[C@H]([C@H](NC(=O)[C@@H]2C[C@@H](C/C=C/c3ccncc3)CN2)C(C)C)[C@H](O)[C@H](O)[C@H]1O (stereo in doubt) [Example 2, 4-(3-Pyridin-4-yl-allyl)-pyrrolidine-2-carboxylic acid [2-methyl-1-(3,4,5-trihydroxy-6-methylsulfanyl-tetrahydro-pyran-2-yl)-propyl]-amide] | ≥ 0.5 |  |  |  |  |  |  | 
2 | CS[C@H]1O[C@H]([C@H](NC(=O)[C@@H]2C[C@@H](CCCc3ccncc3)CN2)C(C)C)[C@H](O)[C@H](O)[C@H]1O (stereo in doubt) [Example 3, 4-(3-Pyridin-4-yl-propyl)-pyrrolidine-2-carboxylic acid [2-methyl-1-(3,4,5-trihydroxy-6-methylsulfanyl-tetrahydro-pyran-2-yl)-propyl]-amide] | ≥ 0.5 | ≤ 0.125 |  |  |  |  |  | 
3 | CS[C@H]1O[C@H]([C@H](NC(=O)[C@@H]2C[C@H](Sc3ccc(F)cc3)CN2)[C@@H](C)O)[C@H](O)[C@H](O)[C@H]1O (stereo in doubt) [Example 10, 4-(4-Fluoro-phenylsulfanyl)-pyrrolidine-2-carboxylic acid [2-hydroxy-1-(3,4,5-trihydroxy-6-methylsulfanyl-tetrahydro-pyran-2-yl)-propyl]-amide] | ≥ 0.5 | ≤ 0.125 |  |  |  |  |  | 
4 | CS[C@H]1O[C@H]([C@H](NC(=O)[C@@H]2C[C@H](SCCC(C)C)CN2)[C@@H](C)O)[C@H](O)[C@H](O)[C@H]1O (stereo in doubt) [Example 12, 4-(3-Methyl-butylsulfanyl)-pyrrolidine-2-carboxylic acid [2-hydroxy-1-(3,4,5-trihydroxy-6-methylsulfanyl-tetrahydro-pyran-2-yl)-propyl]-amide] | ≥ 0.5 |  |  |  |  |  |  | 
5 | CS[C@H]1O[C@H]([C@H](NC(=O)[C@@H]2C[C@@H](CC=C(F)F)CN2)C(C)C)[C@H](O)[C@H](O)[C@H]1O [Example 1, 4-(3,3-difluoroprop-2-ene)-pyrrolidine-2-carboxylic acid [2-methyl-1-(3,4,5-trihydroxy-6-methylsulfanyl-tetrahydro-pyran-2-yl)-propyl]-amide] | ≥ 0.5 |  |  |  |  |  |  | 
6 | CCS[C@@H]1CN[C@H](C(=O)N[C@@H]([C@H]2O[C@H](SC)[C@H](O)[C@@H](O)[C@H]2O)[C@@H](C)O)C1 [Example 5, 4-Ethylsulfanyl-pyrrolidine-2-carboxylic acid [2-hydroxy-1-(3,4,5-trihydroxy-6-methylsulfanyl-tetrahydro-pyran-2-yl)-propyl]-amide] | ≥ 0.5 | ≤ 0.125 |  |  |  |  |  | 
7 | CS[C@H]1O[C@H]([C@H](NC(=O)[C@@H]2C[C@H](SCCC(F)(F)F)CN2)[C@@H](C)O)[C@H](O)[C@H](O)[C@H]1O [Example 11, 4-(3,3,3-Trifluoro-propylsulfanyl)-pyrrolidine-2-carboxylic acid [2-hydroxy-1-(3,4,5-trihydroxy-6-methylsulfanyl-tetrahydro-pyran-2-yl)-propyl]-amide] | ≥ 0.5 | ≤ 0.125 |  |  |  |  |  | 
8 | CCOCCC[C@@H]1CCN[C@H](C(=O)N[C@@H]([C@H]2O[C@H](SC)[C@H](O)[C@@H](O)[C@H]2O)[C@H](C)Cl)CC1 [Example 19′, 5-(3-Ethoxy-propyl)-azepane-2-carboxylic acid [2-chloro-1-(3,4,5-trihydroxy-6-methylsulfanyl-tetrahydro-pyran-2-yl)-propyl]-amide] |  |  |  |  |  |  |  | MIC (Haemophilus influenzae; [8]): 4 µg/mL (≈ 8.28 µM); MIC (Enterococcus faecalis; [9]): 2 µg/mL (≈ 4.14 µM); MIC (Bacteroides fragilis; [10]): 8 µg/mL (≈ 16.6 µM); MIC (Staphylococcus aureus): 0.125 µg/mL (≈ 0.259 µM)
9 | CS[C@H]1O[C@H]([C@H](NC(=O)[C@@H]2CC[C@H](CCCOCCF)CCN2)[C@H](C)Cl)[C@H](O)[C@H](O)[C@H]1O [Example 20′, 5-[3-(2-Fluoro-ethoxy)-propyl]-azepane-2-carboxylic acid [2-chloro-1-(3,4,5-trihydroxy-6-methylsulfanyl-tetrahydro-pyran-2-yl)-propyl]-amide] |  |  |  |  |  |  |  | MIC (Haemophilus influenzae; [8]): 2 µg/mL (≈ 3.99 µM); MIC (Enterococcus faecalis; [9]): 2 µg/mL (≈ 3.99 µM); MIC (Bacteroides fragilis; [10]): 8 µg/mL (≈ 16 µM); MIC (Staphylococcus aureus): 0.125 µg/mL (≈ 0.249 µM)

More lines, main results first:

Row | MIC (Haemophilus influenzae; [1]) [µg/mL] | MIC (Enterococcus faecalis; [2]) [µg/mL] | MIC (Haemophilus influenzae; [3]) [µg/mL] | MIC (Enterococcus faecalis; [4]) [µg/mL] | MIC (Enterococcus faecalis; [5]) [µg/mL] | MIC (Bacteroides fragilis; [6]) [µg/mL] | MIC (Bacteroides fragilis; [7]) [µg/mL] | SMILES | further results
10 | ≥ 0.5 | ≤ 0.125 |  |  |  |  |  | CCCCS[C@@H]1CN[C@H](C(=O)N[C@@H]([C@H]2O[C@H](SC)[C@H](O)[C@@H](O)[C@H]2O)[C@@H](C)O)C1 (stereo in doubt) [Example 4, 4-Butylsulfanyl-pyrrolidine-2-carboxylic acid [2-hydroxy-1-(3,4,5-trihydroxy-6-methylsulfanyl-tetrahydro-pyran-2-yl)-propyl]-amide] | 
11 | ≥ 0.5 | ≤ 0.125 |  |  |  |  |  | CCS[C@@H]1CN[C@H](C(=O)N[C@@H]([C@H]2O[C@H](SC)[C@H](O)[C@@H](O)[C@H]2O)[C@H](C)Cl)C1 (stereo in doubt) [Example 8, 4-Ethylsulfanyl-pyrrolidine-2-carboxylic acid [2-chloro-1-(3,4,5-trihydroxy-6-methylsulfanyl-tetrahydro-pyran-2-yl)-propyl]-amide] | 
12 |  |  | 2 (≈ 4.3 µM) | 0.03 (≈ 0.0645 µM) | ≤ 0.125 | 0.125 (≈ 0.269 µM) | ≤ 0.5 | CS[C@H]1OC([C@H](NC(=O)[C@@H]2C[C@H](CCC3CCC3)CCN2)[C@H](C)Cl)[C@H](O)[C@H](O)[C@H]1O (stereo in doubt) [Example 81, 4-(2-Cyclobutyl-ethyl)-piperidine-2-carboxylic acid [2-chloro-1-(3,4,5-trihydroxy-6-methylsulfanyl-tetrahydro-pyran-2-yl)-propyl]-amide] | 
13 |  |  | 2 (≈ 4.43 µM) | 0.125 (≈ 0.277 µM) | ≤ 0.125 | 0.25 (≈ 0.554 µM) | ≤ 0.5 | CS[C@H]1OC([C@H](NC(=O)[C@@H]2C[C@H](CC3CCC3)CCN2)[C@H](C)Cl)[C@H](O)[C@H](O)[C@H]1O (stereo in doubt) [Example 82, 4-Cyclobutylmethyl-piperidine-2-carboxylic acid [2-chloro-1-(3,4,5-trihydroxy-6-methylsulfanyl-tetrahydro-pyran-2-yl)-propyl]-amide] | 
14 |  |  | 0.5 (≈ 1.14 µM) | 0.125 (≈ 0.285 µM) | ≤ 0.125 | 0.125 (≈ 0.285 µM) | ≤ 0.5 | CCCC1CCN[C@H](C(=O)N[C@@H]([C@H]2O[C@H](SC)[C@H](O)[C@@H](O)[C@H]2O)[C@H](C)Cl)CC1 (stereo partly shown) [Example 47, 5-Propyl-azepane-2-carboxylic acid [2-chloro-1-(3,4,5-trihydroxy-6-methylsulfanyl-tetrahydro-pyran-2-yl)-propyl]-amide] | MIC (Haemophilus influenzae; [11]): 0.5 µg/mL (≈ 1.14 µM); MIC (Haemophilus influenzae; Example A, strain not stated, 16-20 h at 35° C., read-out: MIC against Haemophilus influenzae): ≥ 4 µg/mL
15 |  |  | 0.5 (≈ 1.1 µM) | 0.03 (≈ 0.0662 µM) | ≤ 0.125 | 0.125 (≈ 0.276 µM) | ≤ 0.5 | CCCCC1CCN[C@H](C(=O)N[C@@H]([C@H]2O[C@H](SC)[C@H](O)[C@@H](O)[C@H]2O)[C@H](C)Cl)CC1 (stereo partly shown) [Example 144, 5-Butyl-azepane-2-carboxylic acid [2-chloro-1-(3,4,5-trihydroxy-6-methylsulfanyl-tetrahydro-pyran-2-yl)-propyl]-amide] | MIC (Haemophilus influenzae; [11]): 0.5 µg/mL (≈ 1.1 µM)
16 |  |  | 0.5 (≈ 1.07 µM) | 0.125 (≈ 0.268 µM) | ≤ 0.125 | 0.5 (≈ 1.07 µM) | ≤ 0.5 | CCCCCC1CCN[C@H](C(=O)N[C@@H]([C@H]2O[C@H](SC)[C@H](O)[C@@H](O)[C@H]2O)[C@H](C)Cl)CC1 (stereo partly shown) [Example 145, 5-Pentyl-azepane-2-carboxylic acid [2-chloro-1-(3,4,5-trihydroxy-6-methylsulfanyl-tetrahydro-pyran-2-yl)-propyl]-amide] | MIC (Haemophilus influenzae; [11]): 0.5 µg/mL (≈ 1.07 µM)
17 | 8 (≈ 18.8 µM) | > 8 | 8 (≈ 18.8 µM) | > 8 | > 8 | 2 (≈ 4.71 µM) | 2 (≈ 4.71 µM) | CCC[C@@H]1C[C@@H](C(=O)N[C@@H]([C@H]2O[C@H](SC)[C@H](O)[C@@H](O)[C@H]2O)[C@H](C)Cl)N(C)C1 [clindamycin, reference compound] | MIC H. influenzae (Haemophilus influenzae; H. influenzae ATCC 31517, Example A′): 8 µg/mL (≈ 18.8 µM); MIC (Haemophilus influenzae; [11]): 8 µg/mL (≈ 18.8 µM); MIC E. faecalis (Enterococcus faecalis; E. faecalis ATCC 29212, Example A′): >8 µg/mL; MIC B. fragilis (Bacteroides fragilis; B. fragilis ATCC 25285, Example A′): 2 µg/mL (≈ 4.71 µM); MIC (Staphylococcus aureus): 0.125 µg/mL (≈ 0.294 µM)
